ChEMBL document CHEMBL3576770, “Spirotetronate polyketides as leads in drug discovery” (J Nat Prod, 2015)

Legend:
Staphylococcus aureus = experiment: Antimicrobial activity against methicillin-resistant Staphylococcus aureus assessed as inhibition of microbial proliferation; assay type: functional
B16 = experiment: Cytotoxicity against mouse B16 cells; assay type: functional
P388 = experiment: Cytotoxicity against mouse P388 cells; assay type: functional, cell-based
[1] = Antitumor activity against mouse EAC implanted in ddy-SLC mouse at 2.5 mg/kg, ip qd administered day 1 to 5 starting 24 hrs post tumor implantation; assay type: functional, Ehrlich
L1210 = experiment: Cytotoxicity against mouse L1210 cells; assay type: functional, cell-based
[2] = Inhibition of gastric ATPase (unknown origin); assay type: tissue-based, Homo sapiens, Stomach
[3] = target: T1, Gastrin/cholecystokinin type B receptor (Rattus norvegicus, UniProt P30553); experiment: Inhibition of CCK-B receptor in rat cerebral cortex; assay type: tissue-based
T1 sequence (P30553 whole entry): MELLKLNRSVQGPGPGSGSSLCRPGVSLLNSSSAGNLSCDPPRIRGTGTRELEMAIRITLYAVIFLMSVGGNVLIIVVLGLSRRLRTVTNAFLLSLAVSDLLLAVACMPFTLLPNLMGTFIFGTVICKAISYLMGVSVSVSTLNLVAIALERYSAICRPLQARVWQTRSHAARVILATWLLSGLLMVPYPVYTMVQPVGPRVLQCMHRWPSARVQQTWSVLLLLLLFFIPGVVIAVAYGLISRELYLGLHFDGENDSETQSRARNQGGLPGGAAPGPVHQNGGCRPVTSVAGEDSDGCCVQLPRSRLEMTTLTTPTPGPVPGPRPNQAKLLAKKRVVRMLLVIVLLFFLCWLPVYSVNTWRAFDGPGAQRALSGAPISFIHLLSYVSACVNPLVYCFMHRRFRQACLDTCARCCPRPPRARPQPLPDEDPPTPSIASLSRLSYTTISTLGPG

[4] = Toxicity in ip dosed ICR mouse implanted with mouse EAC; assay type: organism-based; settings: in vivo

SMILES: C[C@@H]1C[C@H](C)C(=O)/C=C/[C@@H]2[C@@H](O)[C@H]3OC4=C(C(=O)O[C@@]42C[C@H]3C)C1=O
- MIC (Staphylococcus aureus; Staphylococcus aureus, read-out: MIC): 5.2 µg/mL

SMILES: COC(=O)N[C@@H]1[C@H](C)O[C@@H](O[C@H]2C/C=C(\C)[C@@H]3C=C[C@@H]4[C@@H](O[C@H]5C[C@H](O[C@@H]6CC[C@H](C)[C@@H](O[C@H]7C[C@H](O)[C@H](O[C@@H]8CC[C@H](O)[C@@H](C)O8)[C@@H](C)O7)O6)[C@H](OC(C)=O)[C@@H](C)O5)[C@@H](C)C[C@H](C)[C@H]4[C@]3(C)C(=O)C3=C(O)[C@@]4(CC(C=O)=C[C@H](O)[C@H]4/C=C/2C)OC3)C[C@@]1(C)N
- INH (B16): 25 µg/mL
- INH (P388): 6.25 µg/mL

SMILES: C=C1C(=O)[C@]2(C)C(=O)O[C@@]34C[C@H](C)C(C(=O)O)=C[C@@H]3CCC[C@@H](C)C[C@@H](C)[C@H]1OC24
- T/C [1]: 145.7%
- IC50 (P388; Mus musculus, P388): 89 nM
- IC50 (L1210): 216 nM

SMILES: CC[C@@H]1C[C@]23OC(=O)C(=C2O)[C@@H](O)[C@@H](C)C[C@H](C)CCC[C@]3(C)C=C1C
- IC50 [2]: 500 nM

SMILES: CC1=CC2C/C=C/C=C/CC(O)C/C=C/CC(C)C3C(CSC3C(=O)C(=O)O)C(=O)C3=C(O)C2(CC1C)OC3=O (stereo not given)
- IC50 [3]: 3.6 nM

SMILES: COc1ccc(Cl)c(C)c1C(=O)O[C@@H]1C[C@H](O[C@H]2[C@H](C)O[C@@H](O[C@H]3CCC[C@@H]4[C@@H]3C=C[C@H]3CCCC/C=C/[C@@H]5C=C(C(=O)O)[C@H](C)C[C@]56OC(=O)C(=C6O)OC(=O)[C@@]43C)C(O)[C@@H]2O)O[C@H](C)[C@H]1O (stereo not given in full)
- LD50 [4]: 295 mg/kg

SMILES: C[C@@H]1C[C@H](C)C(=O)/C=C/[C@@H]2[C@@H](O)[C@H]3OC4=C(C(=O)O[C@@]42C[C@H]3C)C1=O (single isomer, unassigned; atropisomer)
- MIC (Staphylococcus aureus): 3.5 µg/mL
